Results on 31 molecules are retold here after patent US12084437B2, “Halo-substituted piperidines as orexin receptor modulators” (AstraZeneca AB, priority 2016, dated 2024).

In assay [1] the target is T1, OX1 (Homo sapiens, UniProt O43613).
T1 construct: expressed in transfected cells; host or cells: CHO (CHO-OX1)
T1 sequence (O43613 1-425): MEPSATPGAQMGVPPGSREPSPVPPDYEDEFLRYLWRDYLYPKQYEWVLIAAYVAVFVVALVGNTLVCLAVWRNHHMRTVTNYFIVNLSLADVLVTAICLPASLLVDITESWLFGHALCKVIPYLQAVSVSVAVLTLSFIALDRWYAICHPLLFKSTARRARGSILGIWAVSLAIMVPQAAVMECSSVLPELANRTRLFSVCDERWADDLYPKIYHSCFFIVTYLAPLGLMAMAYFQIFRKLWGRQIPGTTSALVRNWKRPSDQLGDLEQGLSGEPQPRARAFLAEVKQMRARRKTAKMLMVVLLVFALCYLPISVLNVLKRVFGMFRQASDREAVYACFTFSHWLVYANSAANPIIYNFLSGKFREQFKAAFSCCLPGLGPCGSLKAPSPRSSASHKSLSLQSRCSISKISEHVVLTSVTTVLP
As to the kind of experiment: Orexin receptor cell-based functional assay, [Ca2+]i by FLIPR, CHO-OX1 cells. The following applies: FLIPR calcium, antagonism of EC90 of [OX], read-out: OXI, IC50. How it is done: (§1) Measurement of [Ca^2+]i using a FLIPR: CHO-OX1 or CHO-OX2 cells were seeded into black-walled clear-base 384-well plates (Corning, catalog #3712) at a density of 20,000 cells per well in F12-K medium supplemented with 10% FBS and then incubated in a 5% CO2, 37° C. incubator overnight to reach 90% confluency. The cells were incubated with equal volume of calcium6 loading buffer (Molecular Devices, Inc.) containing 2.5 mM probenecid at 37° C. for 2 h, followed by test compounds (dose-range 0.1 nM-10 μM) for another 30 min. The plates were then placed into a FLIPR (Molecular Devices, Inc.) to monitor fluorescence (λ excitation 488 nm, λ emission 540 nm) before and after the addition of EC90 of [OX].

Assay [2] addresses T2, OX2 (Homo sapiens, UniProt O43614).
T2 construct: expressed in transfected cells; host or cells: CHO (CHO-OX2)
T2 sequence (O43614 1-444): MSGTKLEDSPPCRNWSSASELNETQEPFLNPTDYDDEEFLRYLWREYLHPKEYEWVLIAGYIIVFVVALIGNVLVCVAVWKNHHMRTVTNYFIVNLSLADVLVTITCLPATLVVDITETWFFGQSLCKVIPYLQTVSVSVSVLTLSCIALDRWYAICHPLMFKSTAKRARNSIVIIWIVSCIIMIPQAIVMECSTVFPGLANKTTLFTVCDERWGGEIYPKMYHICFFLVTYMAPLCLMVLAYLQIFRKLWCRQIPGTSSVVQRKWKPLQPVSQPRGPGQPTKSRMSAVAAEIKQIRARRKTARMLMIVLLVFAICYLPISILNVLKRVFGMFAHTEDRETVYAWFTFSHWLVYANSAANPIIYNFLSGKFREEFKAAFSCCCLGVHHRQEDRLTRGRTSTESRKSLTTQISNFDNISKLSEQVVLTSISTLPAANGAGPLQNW
In words: Orexin receptor cell-based functional assay, [Ca2+]i by FLIPR, CHO-OX2 cells. To be noted: FLIPR calcium, antagonism of EC90 of [OX]. How it is done:
as §1, with “[OX]. Results for exemplary compounds of Formulae (I), (Ia), (Ib), (II), (IIa), (III), (IIIa), (IV), (IVa), (V), or (Va) are shown in Table 3.” for “[OX].”

Broadly, the IC50 is the concentration that inhibits the measured activity by half. As for `Cc1ccc(-c2cn(C)nc2C(=O)N2CC(F)(F)C[C@@H](C)[C@H]2CNc2cnc(C(F)(F)F)cn2)cc1` [Compound 122], the IC50 in assay [1] is 5 nM; in assay [2], over 5000 nM. Turning to `CC#Cc1ccc(C)nc1C(=O)N1CC(F)(F)C[C@@H](C)[C@H]1CNc1ncc(C(F)(F)F)cn1` [Compound 235, ((2S,3R)-5,5-difluoro-3-methyl-2-(((5-(trifluoromethyl)pyrimidin-2-yl)amino)methyl)piperidin-1-yl)(6-methyl-3-(prop-1-yn-1-yl)pyridin-2-yl)methanone], the IC50 in assay [1] is 250 nM; in assay [2], over 5000 nM. Take `Cc1nc(C(=O)N2CC(F)(F)C[C@@H](C)[C@H]2CNc2cnc(C(F)(F)F)cn2)c(-c2ccc(F)cc2)s1` [Compound 137]: the IC50 in assay [1] is 5 nM. As for `C[C@@H]1CC(F)(F)CN(C(=O)c2cn(C)nc2-c2ccccn2)[C@@H]1CNc1cnc(C(F)(F)F)cn1` [Compound 158], the half-maximal inhibitory concentration (IC50) was 62 nM in assay [1] and over 5000 nM in assay [2]. As to `Cc1ccc(-c2ncccn2)c(C(=O)N2CC(F)(F)C[C@@H](C)[C@H]2CNc2ncc(C(F)(F)F)cn2)n1` [Compound 17, ((2S,3R)-5,5-difluoro-3-methyl-2-(((5-(trifluoromethyl)pyrimidin-2-yl)amino)methyl)piperidin-1-yl)(6-methyl-3-(pyrimidin-2-yl)pyridin-2-yl)methanone], the IC50 in assay [1] is 8 nM; in assay [2], over 5000 nM. For `C[C@@H]1CC(F)(F)CN(C(=O)c2nn(C)cc2-c2ccc(Cl)cc2)[C@@H]1CNc1ncc(C(F)(F)F)cn1` [Compound 33], the IC50 amounted to 4 nM in assay [1] and 4700 nM in assay [2].

As to `Cc1nc(C(=O)N2CC(F)(F)C[C@@H](C)[C@H]2CNc2ncc(C(F)(F)F)cn2)c(-c2ncccn2)s1` [Compound 49], the IC50 in assay [1] is 6 nM; in assay [2], over 5000 nM.

For `Cc1c(-c2ncc(F)cn2)c(C(=O)N2CC(F)(F)C[C@@H](C)[C@H]2CNc2ncc(C(F)(F)F)cn2)nn1C` [Compound 264, ((2S,3R)-5,5-difluoro-3-methyl-2-(((5-(trifluoromethyl)pyrimidin-2-yl)amino)methyl)piperidin-1-yl)(4-(5-fluoropyrimidin-2-yl)-1,5-dimethyl-1H-pyrazol-3-yl)methanone], the IC50 in assay [1] is 3 nM; in assay [2], over 5000 nM. Turning to `Cc1ccc(-c2sc(C)nc2C(=O)N2CC(F)(F)C[C@@H](C)[C@H]2CNc2ncc(C(F)(F)F)cn2)cc1` [Compound 64], the concentration for half-maximal inhibition (IC50) in assay [1] is 4 nM; in assay [2], over 5000 nM.

As to `CCn1cc(-c2ncccn2)c(C(=O)N2CC(F)(F)C[C@@H](C)[C@H]2CNc2ncc(C(F)(F)F)cn2)n1` [Compound 232, ((2S,3R)-5,5-difluoro-3-methyl-2-(((5-(trifluoromethyl)pyrimidin-2-yl)amino)methyl)piperidin-1-yl)(1-ethyl-4-(pyrimidin-2-yl)-1H-pyrazol-3-yl)methanone], the half-maximal inhibitory concentration (IC50) in assay [1] is 82 nM; in assay [2], over 5000 nM. Regarding `C[C@@H]1CC(F)(F)CN(C(=O)c2nn(C)cc2-c2ccccc2)[C@@H]1CNc1ncc(C(F)(F)F)cn1` [Compound 21], the IC50 was 2 nM in assay [1] and over 5000 nM in assay [2]. As for `Cc1nc(C(=O)N2CC(F)(F)C[C@@H](C)[C@H]2CNc2ncc(C(F)(F)F)cn2)c(-c2ccccn2)s1` [Compound 70], the IC50 was 5 nM in assay [1] and over 5000 nM in assay [2].

Consider `Cc1ccnc(-c2sc(C)nc2C(=O)N2CC(F)(F)C[C@@H](C)[C@H]2CNc2cnc(C(F)(F)F)cn2)c1` [Compound 147], for which the half-inhibitory concentration (IC50) in assay [1] was 5 nM; in assay [2], over 5000 nM. Take `Cc1nc(C(=O)N2CC(F)(F)C[C@@H](C)[C@H]2CNc2ncc(Cl)cn2)c(-c2ncccn2)s1` [Compound 50]: the figures for the IC50 in assay [1] and in assay [2] were 20 nM and over 5000 nM, respectively.

Turning to `C[C@@H]1CC(F)(F)CN(C(=O)c2nn(C)nc2-c2ccc(Cl)cn2)[C@@H]1CNc1ncc(C(F)(F)F)cn1` [Compound 249], the IC50 in assay [1] is 8 nM; in assay [2], over 5000 nM.

With `C[C@@H]1CC(F)(F)CN(C(=O)c2nn(C)cc2-c2ccc(F)cc2)[C@@H]1CNc1ncc(Cl)cn1` [Compound 31], the IC50 was 4 nM in assay [1] and over 5000 nM in assay [2]. As for `Cc1ccc(-n2nccn2)c(C(=O)N2CC(F)(F)C[C@@H](C)[C@H]2CNc2cnc(C(F)(F)F)cn2)n1` [Compound 153], the IC50 is 27 nM in assay [1] and over 5000 nM in assay [2].

With `Cc1nc(C(=O)N2CC(F)(F)C[C@@H](C)[C@H]2CNc2ncc(C(F)(F)F)cn2)c(-c2ncccc2C)s1` [Compound 75], the IC50 in assay [1] is 12 nM; in assay [2], over 5000 nM.

Consider `Cc1ccc(-c2ccccc2)c(C(=O)N2CC(F)(F)C[C@@H](C)[C@H]2CNc2ncc(C(F)(F)F)cn2)n1` [Compound 51], for which the IC50 in assay [1] is 4 nM; in assay [2] it was over 5000 nM. For the molecule `Cc1ccnc(-c2sc(C)nc2C(=O)N2CC(F)(F)C[C@@H](C)[C@H]2CNc2ncc(C(F)(F)F)cn2)c1` [Compound 74], the 50% inhibitory concentration (IC50) in assay [1] was 6 nM; in assay [2] it was over 5000 nM. On to `Cc1cccc(-c2cn(C)nc2C(=O)N2CC(F)(F)C[C@@H](C)[C@H]2CNc2ncc(C(F)(F)F)cn2)c1` [Compound 26], for which the half-inhibitory concentration (IC50) in assay [1] was 4 nM; in assay [2] it was over 5000 nM. As to `C[C@@H]1CC(F)(F)CN(C(=O)c2cc(Cl)ccc2-c2nnn(C)n2)[C@@H]1CNc1ccc(C(F)(F)F)cn1` [Compound 182], in assay [1], the IC50 came out at 17 nM. With `Cc1ccc(-c2cn(C)nc2C(=O)N2CC(F)(F)C[C@@H](C)[C@H]2COc2ccc(C(F)(F)F)cn2)nc1` [Compound 206, ((2S,3R)-5,5-difluoro-3-methyl-2-(((5-(trifluoromethyl)pyridin-2-yl)oxy)methyl)piperidin-1-yl)(1-methyl-4-(5-methylpyridin-2-yl)-1H-pyrazol-3-yl)methanone], the half-maximal inhibitory concentration (IC50) in assay [1] is 22 nM. With `Cc1ccc(-c2sc(C)nc2C(=O)N2CC(F)(F)C[C@@H](C)[C@H]2CNc2ccc(C(F)(F)F)cn2)nc1` [Compound 197], in assay [2], the IC50 was over 5000 nM. The same measure, in the same setting: with `Cc1cccc(-c2sc(C)nc2C(=O)N2CC(F)(F)C[C@@H](C)[C@H]2CNc2ncc(C(F)(F)F)cn2)c1` [Compound 63] the figure was over 5000 nM. As for `COc1ccc(-c2sc(C)nc2C(=O)N2CC(F)(F)C[C@@H](C)[C@H]2CNc2cnc(C(F)(F)F)cn2)cc1` [Compound 141], the IC50 in assay [1] turned out to be 6 nM.

On to `C[C@@H]1CC(F)(F)CN(C(=O)c2nn(C)cc2-c2ncc(F)cn2)[C@@H]1COc1ncc(C(F)(F)F)cc1F` [Compound 245], for which the half-maximal inhibitory concentration (IC50) in assay [2] was over 5000 nM. With `C[C@@H]1CC(F)(F)CN(C(=O)c2nn(C)cc2-c2ccccc2F)[C@@H]1CNc1ncc(C(F)(F)F)cn1` [Compound 23], the half-maximal inhibitory concentration (IC50) in assay [2] is over 5000 nM. Take `C[C@@H]1CC(F)(F)CN(C(=O)c2nn(C)cc2-c2ncc(F)cn2)[C@@H]1COc1cnc(C(F)(F)F)cn1` [Compound 244]: in assay [2], the 50% inhibitory concentration (IC50) is over 5000 nM. For the molecule `C[C@@H]1CC(F)(F)CN(C(=O)c2nn(C)cc2-c2ccc(F)cc2)[C@@H]1CNc1ncc(C(F)(F)F)cn1` [Compound 30], in assay [2], the IC50 was over 5000 nM. Consider `Cc1nc(C(=O)N2CC(F)(F)C[C@@H](C)[C@H]2CNc2cnc(C(F)(F)F)cn2)c(-c2cc(F)ccn2)s1` [Compound 150], for which the IC50 in assay [2] is over 5000 nM.
